This is an account of results in patent US20190054096A1, “METHODS FOR A[…] VIRULENCE” (priority 2015, published 2019).

For experiment [1], the system named is P. falciparum parasite line, 3D7. Kind of experiment: microbe, parasite or virus in culture. Format: cell-based, Plasmodium falciparum. Particulars: P. falciparum 3D7 blood-stages, 0.1% initial parasitemia. The protocol: FIG. 9 exemplifies a dose-dependent effect of CR-mimetic compounds on human P. falciparum blood-stages. Synchronized cultures were set at 0.1% initial parasitemia, treated with the various compounds and analysed by flow cytometry after SYBR Green labelling of parasite DNA at 72 hours or 96 hours post-treatment. Data (mean±sem) was […] to the untreated control on each experiment (3-5 independent experiments/compound). IC50 values were determined by GraphPad. Prism using non-linear regression variable slope (normalized) analysis. […] Data for rsv and SRT1720 was collected at 72 hours post-treatment, and 96 hours for all the other compounds.
Example 7. Dose-dependent effect of CR-mimetic compounds on human P. falciparum blood-stages. Synchronized cultures of the P. falciparum parasite line, 3D7, were set at 0.1% initial parasitemia, treated with the various compounds and analysed by flow cytometry after SYBR Green labelling of parasite DNA at 72 hours or 96 hours post-treatment. […] Data for rsv and SRT1720 were collected at 72 hours post-treatment, and 96 hours for all the other compounds.
P. falciparum 3D7 was continuously cultured in human erythrocytes at 4% hematocrit in RPMI 1640 supplemented with 0.5% Albumax II (Invitrogen), […] Hypoxanthine (Sigma) and 20 μg/ml Gentamicin (Invitrogen). Cultures were maintained at 37° C. in an atmosphere of 5% O2, 5% CO2, 90% N2, and synchronized by consecutive treatments of 5% Sorbitol (Sigma), for dose-response analysis, serial dilutions of the compounds were added to synchronized ring-stages of P. falciparum in 96-well plates. Initial parasitemia was set to 0.1% and hematocrit 2%. Parasite replication and reinvasion were assessed at the indicated time by flow cytometry based on fluorescent labelling of P. falciparum DNA. The SYBR Green I (Invitrogen) stained samples were analysed on a CyFlow® SL Blue or Accuri® BD flow cytometer and the data evaluated using FlowJo software (TreeStar) to determine the percentage of infected erythrocytes. IC50 values were calculated using GraphPad Prism.

Experiment [2] has as its system P. berghei sporozoites. Kind of experiment: Survival of P. berghei sporozoite-infected mice. Format: in vivo, C57BL/6 mice. Particulars: 15-day period. An excerpt:
FIG. 6 exemplifies that treatment with AMPK agonists protects P. berghei infected mice from severe malaria, leading to improved survival, C57BL/6 mice were infected and treated as in FIG. 5 (≥10 mice/group; p<0.05).
Example 4. Improved survival of parasite-infected mice treated with AMPK agonists. To determine the effect of the AMPK activators, salicylate and metformin, on animal survival over a 15-day period following parasite infection, C57BL/6 mice were infected by i.d. injection of 5×10^3 P. berghei sporozoites. Salicylate (300 mg/Kg, Sigma No. 71945) was administered by i.p. injection once daily, starting one hour before infection. Metformin (500 mg/Kg. Sigma No D150959) was provided in the drinking water for one week prior to, and during, infection.

In experiment [3] the test system is P. berghei sporozoites. Kind of experiment: Relative parasitemia after P. berghei sporozoite (liver-stage) infection of mice. It counts as in vivo, C57BL/6 mice. Particulars: 72 h.p.i., vs control.
Procedure: Relative parasitemia in C57BL/6 mice that were infected with freshly dissected P. berghei sporozoites, and treated with salicylate or metformin, or maintained under control conditions. Salicylate (300 mg/Kg) was administered by i.p. injection once daily, starting one hour before infection, Metformin (500 mg/Kg) was provided in the drinking water for one week prior and during infection, (≥10 mice/group; each dot represents, one mouse). ***p<0.001; ****p<0.0001.
Parasitemia was determined by flow cytometry analysis (BD FACSCAlibur200 or BD LSRFortessa®) of one drop of tail blood in PBS from C57BL/6 mice that were infected with GFP-expressing P. berghei parasites, and maintained on either AL or CR diets. Analysis on FlowJo® followed. The number of acquired total events ranged from 100-200 thousand. […] The GFP-expressing parasites were detected in the FITC channel. False GFP positive ceils (erythrocyte's auto-fluorescence) were eliminated by plotting FITC against PE.
Relative parasitemia in C57BL/6 mice at 72 hours post infection (h.p.i) with freshly dissected P. berghei sporozoites, was determined by flow cytometry analysis (as described in Example 1) for mice treated with either salicylate or metformin, or maintained under control, untreated conditions. […]
The subject of a further experiment is AMPKα (pAMPKα T172). Kind of experiment: Western blot of AMPK phosphorylation in liver homogenates. Format: in vivo, C57BL/6 mice. Particulars: non-infected mice, 1 hr after injection, vs vehicle. The text has this: Western blot analysis of liver homogenates from non-infected mice in AL and DR diets (top panel), and non-infected mice 1 hr after injection of salicylate or vehicle (bottom panel). Lane numbers 1-3 correlate to liver homogenates from individual mice. Representative blot probing with anti-phospho AMPKα (pAMPKα^T172), and -actin antibodies.
Example 2. […] Western blot analysis of AMPK phosphorylation in liver homogenates from non-infected C57BL/6 mice in AL end DR diets, and non-infected mice one hour after injection of salicylate or vehicle. Livers were homogenized in ice-cold lysis buffer (50 mM HEPES, 150 mM NaCl, 10 mM NaF, 1 mM Sodium pyrophosphate, 0.5 mM EDTA, 1 mM DTT, 1% triton, 1 mM Na3VO4, 250 mM Sucrose, protease inhibitor cocktail and phosphatase inhibitors). Total protein content in each homogenate was measured by Bradford Assay (Bio-Rad), according to manufacturer's instructions. 50 μg of total liver lysates were resolved on either 8% SDS-PAGE or Any kD™ Mini-PROTEAN® precast gels (Bio-Rad) and transferred to a nitrocellulose membrane using standard wet transfer with 1× Tris-Glycine buffer containing 20% methanol for 2 hr at 100 V constant or were transferred using iBlot® gel Transfer Stacks (ThermoFisher). […]
pAMPK was detected using rabbit anti-phospho-AMPKα T172 (mAb 40H9.1:1000, Cell Signaling Technology) (incubation for overnight at 4° C). […]
(In general: Immunoblotting shows a protein as a band on a membrane.)

In experiment [4] the test system is P. berghei Δkin parasites. Briefly: In vitro schizont maturation, merozoites per segmented schizont (Δkin). It counts as cell-based, Plasmodium berghei. Particulars: 24 h in vitro, medium with 25% fetal bovine serum. As to the method: (§1) FIG. 7A exemplifies microscopy analysis and quantification of the number of merozoites per segmented schizont in P. berghei wild-type (wt), Δkin and complemented Δkin (Δkin+kin) parasites. Blood-stage parasites were allowed to mature for 24 hours into schizonts in vitro with medium supplemented with AL and CR sera. KIN is the AMPK homologue in Plasmodium parasites. ****p<0.0001.
(§2) Example 5. The AMPK homologue, KIN, regulates the CR effect in Plasmodium parasites. P. berghei parasite wild-type respond to CR by decreasing the number of daughter merozoites on each cycle. […] The CR effect phenotype can be rescued by reintroducing the kin gene into Δkin parasite line.
(§3) P. berghei blood-stage parasites can be maintained in vitro for only one developmental cycle (20-24 h), in which ring forms develop into mature schizonts, without bursting. Infected blood was obtained from in vivo infections containing mainly ring-stage forms at 1-3% parasitemia. Parasites were cultured in RPMI1640 medium containing 25 mM HEPES, 0.05 mg/ml Gentamicin or Penicillin/Streptomycin (all Gibco/Invitrogen), in 96-well plates. […] Parasite development and the number of merozoites per schizont were then assessed using light microscopy and image (http://rsbweb.nih.gov/ij/). Only mature schizont (segmenters) with clearly separated merozoites were scored.

Experiment [5] relates to P. berghei wild-type (wt) and complemented Δkin (Δkin+kin) parasites. Briefly: In vitro schizont maturation, merozoites per segmented schizont (wild-type and complemented Δkin). The conditions noted are these: 625 μM, 24 h in vitro, medium with 25% fetal bovine serum. It counts as cell-based, Plasmodium berghei. The protocol:
as §1, §2, §3

[6] abbreviates: 300 mg/Kg i.p. once daily, starting one hour before infection.

Entries after “also recorded” stand apart in the source; their conditions may differ.

For the compound `N#Cc1c(O)c2c(-c3ccc(-c4ccccc4O)cc3)csc2[nH]c1=O` [A769662], the IC50 – broadly, the point on the concentration scale where inhibition reaches its midpoint – in experiment [1] (96 hours post-treatment) stood at 71 µM.
In the case of `O=C(Nc1ccccc1-c1cn2c(CN3CCNCC3)csc2n1)c1cnc2ccccc2n1` [SRT1720], the IC50 in experiment [1] (72 hours post-treatment) is 0.786 µM.
`CN(C)C(=N)N=C(N)N` [metformin] had an IC50 in experiment [1] (Plasmodium falciparum, 96 hours post-treatment) of 868 µM. For the same compound, the Survival rate entry in the experiment with P. berghei sporozoites [2] (500 mg/Kg in drinking water for one week prior to and during infection) is listed as “significant increases in the survival rates”. For the same compound, the “Relative parasitemia (liver-stage infection)” value in the experiment on P. berghei sporozoites [3] (500 mg/Kg in drinking water for one week prior and during infection) is listed as “reduction of P. berghei liver-stage infection”.
`Oc1ccc(C=Cc2cc(O)cc(O)c2)cc1` [resveratrol] showed an IC50 in experiment [1] (Plasmodium falciparum, 72 hours post-treatment) of 32 µM. That is a double-digit micromolar value.
Consider `O=C(O)c1ccccc1O` [salicylate], for which the “AMPK phosphorylation (pAMPKα T172) in liver” value in the experiment with AMPKα (pAMPKα T172) is recorded as “activation of AMPK”. Further, the “Parasite replication (merozoites per schizont)” value is listed as “fail to respond” in experiment [4] and “reduced parasite replication; also recorded: reduce replication” in experiment [5]. Further, the IC50 in experiment [1] (96 hours post-treatment) was determined as 1300 µM. In addition, the Survival rate entry with P. berghei sporozoites [2] (setting [6]) was “significant increases in the survival rates”. Besides, in the experiment on P. berghei sporozoites [3] (setting [6]), the “Relative parasitemia (liver-stage infection)” value was “reduction of P. berghei liver-stage infection”.
